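48-hour exposure; five concentrations; linearly interpolated endpoints. Here, GI50 denotes the concentration required for 50% inhibition of growth.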 Active and inactive are the calls of the source. No stated cut-off is given here; in the data, active = GI50 up to about 1.1 µM and inactive = higher.
Legend:
Assay in all cases: NCI anticancer screen, dose series, 48 h
OVCAR-3 = test system: OVCAR-3
NCI-H226 = test system: NCI-H226
NCI-H460 = test system: NCI-H460
M14 = test system: M14
RPMI-8226 = test system: RPMI-8226
A498 = test system: A498
SW-620 = test system: SW-620
OVCAR-4 = test system: OVCAR-4
RXF 393 = test system: RXF 393
HCT-116 = test system: HCT-116
SN12C = test system: SN12C
SK-MEL-2 = test system: SK-MEL-2
MDA-MB-435 = test system: MDA-MB-435
ACHN = test system: ACHN
KM12 = test system: KM12
SF-295 = test system: SF-295
PC-3 = test system: PC-3
A549 = test system: A549
NCI-H23 = test system: NCI-H23
HL-60 = test system: HL-60

Measured: GI50

O=C(/C=C/c1ccc(O)c(O)c1)NC(COC(=O)/C=C/c1ccc(O)c(O)c1)C(=O)O (stereo not drawn)
inactive: OVCAR-3 > 100 µM | NCI-H226 > 100 µM | NCI-H460 > 100 µM | M14 > 100 µM | RPMI-8226 > 100 µM | A498 > 100 µM | SW-620 > 100 µM | OVCAR-4 > 100 µM | RXF 393 > 100 µM | HCT-116 > 100 µM | SN12C > 100 µM | SK-MEL-2 > 100 µM | MDA-MB-435 > 100 µM | ACHN > 100 µM | KM12 > 100 µM | SF-295 > 100 µM | PC-3 > 100 µM | A549 > 100 µM | NCI-H23 > 100 µM

N#CCCN(CCC#N)c1ccc(C(/N=N/c2ccccc2)=N\c2ccccc2)cc1
inactive: OVCAR-3 > 100 µM | NCI-H226 > 100 µM | NCI-H460 > 100 µM | M14 > 100 µM | RPMI-8226 > 100 µM | A498 > 100 µM | SW-620 > 100 µM | OVCAR-4 > 100 µM | RXF 393 > 100 µM | HCT-116 > 100 µM | SN12C > 100 µM | SK-MEL-2 > 100 µM | MDA-MB-435 > 100 µM | ACHN > 100 µM | KM12 > 100 µM | SF-295 > 100 µM | PC-3 > 100 µM | A549 > 100 µM | NCI-H23 > 100 µM

O=C(O)Cc1cccnc1
inactive: OVCAR-3 > 100 µM | NCI-H226 > 100 µM | NCI-H460 > 100 µM | M14 > 100 µM | RPMI-8226 > 100 µM | A498 > 100 µM | SW-620 > 100 µM | OVCAR-4 > 100 µM | RXF 393 > 100 µM | HCT-116 > 100 µM | SN12C > 100 µM | SK-MEL-2 > 100 µM | MDA-MB-435 > 100 µM | ACHN > 100 µM | KM12 > 100 µM | SF-295 > 100 µM | PC-3 > 100 µM | A549 > 100 µM | NCI-H23 > 100 µM

CC(C)OC(=O)[C@@H]1OC(C)(C)O[C@H]1C(=O)OC(C)C
inactive: NCI-H226 > 100 µM | NCI-H460 > 100 µM | RPMI-8226 > 100 µM | A498 > 100 µM | SW-620 > 100 µM | OVCAR-4 > 100 µM | RXF 393 > 100 µM | HCT-116 > 100 µM | SN12C > 100 µM | SK-MEL-2 > 100 µM | MDA-MB-435 > 100 µM | ACHN > 100 µM | KM12 > 100 µM | SF-295 > 100 µM | PC-3 > 100 µM | A549 > 100 µM | NCI-H23 > 100 µM

Nc1ncnc2c1ncn2[C@@H]1C[C@H](NO)[C@@H](O)[C@H]1O
inactive: OVCAR-3 > 100 µM | NCI-H226 > 100 µM | NCI-H460 > 100 µM | M14 > 100 µM | RPMI-8226 10.8 µM | A498 > 100 µM | SW-620 26.9 µM | OVCAR-4 > 100 µM | RXF 393 > 100 µM | HCT-116 4.88 µM | SN12C > 100 µM | SK-MEL-2 > 100 µM | MDA-MB-435 > 100 µM | ACHN > 100 µM | KM12 9.25 µM | SF-295 > 100 µM | PC-3 > 100 µM | A549 > 100 µM | NCI-H23 > 100 µM

O=C1C2=Cc3ccccc3OC2(O)Oc2cc(O)ccc21 (stereo not drawn)
inactive: OVCAR-3 > 100 µM | NCI-H226 > 100 µM | M14 > 100 µM | RPMI-8226 > 100 µM | A498 > 100 µM | SW-620 > 100 µM | RXF 393 > 100 µM | HCT-116 > 100 µM | SN12C > 100 µM | SK-MEL-2 > 100 µM | MDA-MB-435 > 100 µM | ACHN > 100 µM | KM12 > 100 µM | SF-295 > 100 µM | PC-3 > 100 µM | A549 > 100 µM | NCI-H23 > 100 µM

CCCNCC(O)CNc1ccc(NCC(O)CNCCC)c2c1C(=O)c1ccccc1C2=O (stereo not drawn)
inactive: OVCAR-3 4.37 µM | NCI-H226 2 µM | NCI-H460 2.42 µM | M14 3.33 µM | RPMI-8226 1.69 µM | A498 11.7 µM | SW-620 2.05 µM | OVCAR-4 3.07 µM | HCT-116 2.56 µM | HL-60 2.52 µM | SN12C 1.78 µM | SK-MEL-2 2.16 µM | MDA-MB-435 2.81 µM | ACHN 8.83 µM | KM12 3.41 µM | PC-3 1.95 µM | A549 1.81 µM | NCI-H23 3.24 µM

CC(NC(=N)N)C(=O)O (stereo not drawn)
inactive: OVCAR-3 > 100 µM | NCI-H226 > 100 µM | M14 > 100 µM | RPMI-8226 > 100 µM | A498 > 100 µM | SW-620 > 100 µM | OVCAR-4 > 100 µM | RXF 393 > 100 µM | HCT-116 > 100 µM | SN12C > 100 µM | SK-MEL-2 > 100 µM | MDA-MB-435 > 100 µM | ACHN > 100 µM | KM12 > 100 µM | SF-295 > 100 µM | PC-3 > 100 µM | A549 > 100 µM | NCI-H23 > 100 µM

C[C@H](c1ccccc1)N1C(=O)[C@@H](OCc2ccccc2)[C@H]1[C@H](COC(=O)COCc1ccccc1)OCc1ccccc1
inactive: OVCAR-3 > 100 µM | NCI-H226 6.95 µM | M14 > 100 µM | RPMI-8226 27.9 µM | A498 > 100 µM | SW-620 > 100 µM | HCT-116 > 100 µM | SN12C > 100 µM | SK-MEL-2 > 100 µM | MDA-MB-435 54.1 µM | ACHN > 100 µM | KM12 > 100 µM | SF-295 > 100 µM | PC-3 77.4 µM | A549 > 100 µM | NCI-H23 57.3 µM

COc1ccc2c(Cl)cc(NC(=S)Nc3ccccc3)nc2c1
inactive: OVCAR-3 31.8 µM | NCI-H226 55.5 µM | NCI-H460 32.3 µM | M14 18.3 µM | RPMI-8226 21.2 µM | A498 21.1 µM | SW-620 26.4 µM | OVCAR-4 32.4 µM | RXF 393 20.2 µM | HCT-116 20.2 µM | SN12C 33.3 µM | SK-MEL-2 22.4 µM | MDA-MB-435 17.7 µM | ACHN 38.5 µM | KM12 18.7 µM | SF-295 31.6 µM | PC-3 28.6 µM | A549 29.5 µM | NCI-H23 23.4 µM

CCOP(=O)(OCC)C1CC(O)C(=O)N1 (stereo not drawn)
inactive: OVCAR-3 > 100 µM | NCI-H226 > 100 µM | M14 > 100 µM | RPMI-8226 > 100 µM | A498 > 100 µM | SW-620 > 100 µM | OVCAR-4 > 100 µM | HCT-116 > 100 µM | SN12C > 100 µM | SK-MEL-2 > 100 µM | MDA-MB-435 > 100 µM | ACHN > 100 µM | KM12 > 100 µM | SF-295 > 100 µM | PC-3 > 100 µM | A549 > 100 µM | NCI-H23 > 100 µM

— ChEMBL document CHEMBL1201862, “PubChem BioAssay data set” (2004)
